By IC50 is commonly meant the point on the concentration scale where inhibition reaches its midpoint.

≈ marks a conversion by molar mass, not a printed value. Results filed as inconclusive are left out. Calls of active or inactive are those of the source. The rule behind the calls is not given here. Bounds are passed on as bounds.

The values below come from PubChem BioAssay AID1949 (Southern Research Institute, 2009).

In the experiment the test system is M. tuberculosis H37Rv growth inhibition. Description: Mycobacterium tuberculosis H37Rv growth inhibition, cell based, confirmatory dose response (AID 1949).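 Note: bacteria grown 7 days with compound before Alamar blue readout.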

Take `CC(C)(C)c1cc(Cl)ccc1OCCn1ccnc1`: the IC50 is 1.94 µg/mL (≈ 6.96 µM).
For `CC1=Nc2ccccc2N=C(N)C1c1ccc(Cl)cc1` (stereo not given) the value was 15 µg/mL (≈ 52.8 µM).
As for `FC(F)(F)c1cccc(NC(=S)Nc2ccc(Cl)cc2Cl)c1`, the IC50 is 12.1 µg/mL (≈ 33.1 µM).
For `CN(C)CCSc1nc(-c2cccs2)cc(-c2ccc(F)cc2)c1C#N` the value was 5.23 µg/mL (≈ 13.6 µM); for `O=C1C(=O)N(Cc2ccccc2Cl)c2ccc(Br)cc21`, 3.79 µg/mL (≈ 10.8 µM).
With `CC1CCc2sc3ncnc(NCCc4ccccc4)c3c2C1` (stereo not given), the IC50 is 1.85 µg/mL (≈ 5.72 µM).
For `CCOc1ccc(C(=O)NC23CC4CC(CC(C4)C2)C3)cc1[N+](=O)[O-]` the value was > 50 µg/mL (inactive); for `O=C(CSc1ccc(Cl)cc1)Nc1ccc(Br)cn1`, 3.02 µg/mL (≈ 8.44 µM).
With `O=C(CSc1nnc(-c2ccccc2)o1)Nc1ccc2ccccc2c1` the figure was 1.02 µg/mL (≈ 2.82 µM); with `CC(C)(C)c1ccc(C(=O)Nc2nccs2)cc1Br`, 0.37 µg/mL (≈ 1.09 µM); with `CCOC(=O)c1ccc2nc(C)cc(Nc3ccc(N4CCCCC4)cc3)c2c1`, 2.41 µg/mL (≈ 6.19 µM).
With `Cc1cc(NC(=O)c2ccc([N+](=O)[O-])o2)c(C)cc1I` the figure was 0.46 µg/mL (≈ 1.19 µM).
Regarding `CCCCc1ccc(N/C(N)=N\c2nc(C)cc(C)n2)cc1`, the IC50 was 23.3 µg/mL (≈ 78.2 µM).
For `O=C(CC1(O)C(=O)N(CCc2ccccc2)c2ccc(Cl)cc21)c1ccccn1` (stereo not given) the value was 5.07 µg/mL (≈ 12.5 µM); for `CCOC(=O)/C=C/C(=O)Nc1nc(-c2ccccc2)cs1`, 0.53 µg/mL (≈ 1.75 µM).
For `CCCc1ccc(OCC(=O)Nc2ccc(F)cc2)cc1`, the IC50 is 0.85 µg/mL (≈ 2.96 µM).
For `C#CCSc1nnc(-c2ccc([N+](=O)[O-])cc2)o1` the value was below 0.1 µg/mL.
For `O=C(OCc1ccccc1Cl)c1cc2ccccc2oc1=O` the value was > 50 µg/mL (inactive); for `O=C(Cc1ccccc1)NC(=S)Nc1ccc(Oc2ccccc2)cc1`, 7.61 µg/mL (≈ 21 µM).
For `CC(=O)Oc1cc(C)cc2oc(=O)c3c(c12)CCCC3` the value was 3.85 µg/mL (≈ 14.1 µM); for `COc1cccc(C(=O)Nc2ccc(Cl)c(C(F)(F)F)c2)c1OC`, 14.5 µg/mL (≈ 40.3 µM); for `CCn1c2ccccc2c2cc(CN3CCC(N4CCN(c5ccccc5)CC4)CC3)ccc21`, 1.45 µg/mL (≈ 3.2 µM).
Consider `COc1ccc(C)cc1NC(=O)c1ccc(Cc2ccc(C)cc2)o1`, for which the IC50 is 2.71 µg/mL (≈ 8.08 µM).
On to `Cc1c(Cl)c(C(F)(F)F)nn1CCCNC(=S)NCc1ccc(Cl)cc1`, for which the IC50 is 11.2 µg/mL (≈ 26.2 µM).
For the molecule `CC(C)(C)c1ccc(C(=O)NC(=S)Nc2ccc(F)cc2)cc1Br`, the IC50 is 2.51 µg/mL (≈ 6.13 µM).
With `COC(=O)COc1ccc2c(=O)c(Oc3cnn(-c4ccccc4)c3)c(C)oc2c1` the figure was 3.89 µg/mL (≈ 9.57 µM); with `O=[N+]([O-])c1nn(-c2ccccc2)n(O)c1=NC1CCCC1`, 39.3 µg/mL (≈ 136 µM).
For the molecule `CC1CCc2nc3sc4c(c3c(N)c2C1)CCCC4` (stereo not given), the IC50 is 1.06 µg/mL (≈ 3.89 µM).
With `O=C1C(=O)N(Cc2cccc3ccccc23)c2ccc(Cl)cc21` the figure was 21.4 µg/mL (≈ 66.6 µM); with `C/C(=N/N=C1\NC(=O)C(Cc2ccc(F)cc2)S1)c1ccc(Cl)cc1` (stereo not given), 1.48 µg/mL (≈ 3.94 µM); with `O=C(COc1ccc(C(=O)NCc2ccccc2)cc1)OC1CCCCC1`, 0.73 µg/mL (≈ 1.99 µM).
With `CCOC(=O)Cc1c(C)nc2c(-c3ccc(Cl)cc3)c[nH]n2c1=O`, the IC50 was 1.95 µg/mL (≈ 5.64 µM).
With `Cc1c(C(=O)c2ccccc2)sc2nc(-c3ccccc3)nc(N)c12` the figure was 7.76 µg/mL (≈ 22.5 µM).
With `O=C(Nc1ccc(Cl)cc1C(F)(F)F)c1ccc([N+](=O)[O-])o1` the figure was 2.42 µg/mL (≈ 7.23 µM).
With `Cc1ccc(-c2[nH]c(-c3cc([N+](=O)[O-])ccc3O)nc2-c2ccccc2)cc1` the figure was 5.58 µg/mL (≈ 15 µM); with `CSc1nsc(SCC(=O)N2CCN(c3ccccc3)CC2)n1`, 0.35 µg/mL (≈ 0.955 µM).
For `Cc1cc(Br)c2[nH]c(O)c(N=NC(=O)COc3ccc(C(C)(C)C)cc3C)c2c1`, the half-inhibitory concentration (IC50) was 27 µg/mL (≈ 59 µM).
For `CC(=O)NC(=S)NNC(=O)c1ccc(-c2ccccc2)cc1` the value was below 0.1 µg/mL; for `CC(C)(C)c1ccc(C(=O)NC(=S)NCc2ccco2)cc1`, 2.16 µg/mL (≈ 6.83 µM); for `CSc1ccc(/C=C/c2nc(-c3ccccc3O)n[nH]2)cc1`, 4.5 µg/mL (≈ 14.5 µM).
For the molecule `O=C(Nc1ccc(OCC(F)(F)C(F)F)c(C(F)(F)F)c1)c1ccccc1O`, the IC50 was 5.26 µg/mL (≈ 12.8 µM).
With `O=C(CSc1ccc([N+](=O)[O-])cn1)Nc1ccc2c(c1)OCO2`, the concentration for half-maximal inhibition (IC50) is 7.47 µg/mL (≈ 22.4 µM).
With `Cc1cc2ncn(CC(O)COc3ccc(C(C)C)cc3)c2cc1C` (stereo not given) the figure was 5.42 µg/mL (≈ 16 µM); with `Clc1ccc(OCCOCCNCc2ccccc2)c2ccccc12`, 6.11 µg/mL (≈ 17.2 µM).
`COc1ccc(C)cc1NC(=O)c1ccc(CN2CCC(Cc3ccccc3)CC2)cc1`: the IC50 was 3.36 µg/mL (≈ 7.84 µM).
With `CCOC(=O)COc1ccc2c(c1)c(C(C)=O)c(C)n2Cc1ccccc1` the figure was 24.9 µg/mL (≈ 68.2 µM).
For `Cc1ccc(-c2nc(Nc3ccc(O)cc3)c3ccccc3n2)cc1` the value was 2.14 µg/mL (≈ 6.54 µM).
With `COc1ccc(C(=O)Oc2ccc(C(=O)OCc3ccccc3)cc2)cc1OC` the figure was 1.39 µg/mL (≈ 3.54 µM).
With `O=C(/C=C/c1cccc(C(F)(F)F)c1)Nc1cccc(C(F)(F)F)c1`, the IC50 was 0.9 µg/mL (≈ 2.51 µM).
For `CCOC(=O)c1c(NC(=O)c2cc3ccccc3oc2=O)sc(C)c1-c1ccccc1` the value was > 50 µg/mL (inactive).
